Assay results taken from patent US20160120863A1, “SLC2A TRANSPORTER INHIBITORS” (IOMET PHARMA LTD., priority 2013, published 2016).

Molecular target: T1, human GLUT1 (Homo sapiens, UniProt P11166)
T1 construct: expressed in transfected cells
T1 sequence (P11166 1-492): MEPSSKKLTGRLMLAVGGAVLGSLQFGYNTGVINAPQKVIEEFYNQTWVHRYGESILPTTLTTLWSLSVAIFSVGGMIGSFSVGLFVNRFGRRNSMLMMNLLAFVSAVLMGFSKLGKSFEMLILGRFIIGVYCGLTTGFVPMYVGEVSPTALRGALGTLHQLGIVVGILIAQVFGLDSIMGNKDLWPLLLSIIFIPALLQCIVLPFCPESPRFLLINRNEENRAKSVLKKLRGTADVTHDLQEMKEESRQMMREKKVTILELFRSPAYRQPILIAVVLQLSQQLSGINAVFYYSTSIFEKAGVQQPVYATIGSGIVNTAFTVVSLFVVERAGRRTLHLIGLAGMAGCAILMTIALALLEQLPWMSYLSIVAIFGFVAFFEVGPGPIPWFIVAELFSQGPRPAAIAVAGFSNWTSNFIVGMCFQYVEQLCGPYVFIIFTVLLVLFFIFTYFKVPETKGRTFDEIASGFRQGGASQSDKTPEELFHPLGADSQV
Assay: [3H]-deoxy-D-glucose uptake assay, GLUT1
Assay type: cell-based
Settings: [3H]-deoxy-D-glucose uptake in HEK293 cells stably expressing human GLUT1
Protocol: HEK293 cells were engineered to stably express either human GLUT1, GLUT2, GLUt3 or GLUT4 by transfection with the pReceiver-Lv105 plasmid, containing either hGLUT1, hGLUT2, hGLUT3, or hGLUT4 gene constructs with lipofectamine 2000, hGLUT1- hGLUT2- hGLUT3- or hGLUT4-overexpressing polyclonal populations were isolated under purinomycin selective pressure (1 μg/ml) and maintained in Dulbecco's modified Eagle's medium supplemented with 1 μg/ml purinomycin+10% foetal bovine serum (FBS).
60,000 cells per well were seeded overnight into poly-D-lysine coasted 96-well plates. […] 90 μl of test compounds were added in glucose-free uptake buffer and cells were incubated at 37° C. for 30 min.
Cells were then washed twice with ice-cold PBS and 100 μl of Microscint-20 was added per well. Glucose uptake was quantified with a scintillation counter. The half maximal inhibitory concentration (IC50) (a measure of the effectiveness of the test compound in inhibiting glucose uptake) was determined.

Row | SMILES | GLUT1 pIC50
1 | O=C(c1cccc(F)c1)N1CCCN(Cc2c(-c3ccc(Cl)cc3)nc3ccc(-c4ccccc4)cn23)CC1 [Compound 169] | ++ (pIC50 5.00-5.99)
2 | Clc1ccc(-c2nc3ccc(-c4ncon4)cn3c2CN2CCOCC2)cc1 [Compound 172] | ++ (pIC50 5.00-5.99)
3 | c1ccc(-c2ccc3nc(C4CCCCC4)c(CN4CCOCC4)n3c2)cc1 [Compound 173] | ++ (pIC50 5.00-5.99)
4 | NC(=O)CN1CCN(Cc2c(-c3ccc(Cl)cc3)nc3ccc(-c4ccccc4)cn23)CC1 [Compound 174] | ++ (pIC50 5.00-5.99)
5 | Clc1ccc(-c2nc3ccc(-c4ccccc4)cn3c2CN2CCn3ncnc3C2)cc1 [Compound 175] | ++ (pIC50 5.00-5.99)
6 | Cc1cc2nc(-c3ccc(Cl)cc3)c(CN3CCOCC3)n2cc1-c1ccccc1 [Compound 176] | ++ (pIC50 5.00-5.99)
7 | Clc1ccc(-c2nc3ccc(C4=CCCC4)cn3c2CN2CCOCC2)cc1 [Compound 177] | + (pIC50 4.00-4.99)
8 | O=C(c1cccc(F)c1)N1CCN(Cc2c(-c3ccc(Cl)cc3)nc3ccc(C4CC4)cn23)CC1 [Compound 178] | +++ (pIC50 ≧ 6.00)
9 | N#Cc1ccc2nc(-c3ccc(Cl)cc3)c(CN3CCOCC3)n2c1 [Compound 179] | +− (pIC50 < 4.00)
10 | Clc1ccc(-c2nc3ccc(-c4nnn[nH]4)cn3c2CN2CCOCC2)cc1 [Compound 180] | +− (pIC50 < 4.00)
11 | O=C(c1cnccn1)N1CCN(Cc2c(-c3ccc(Cl)cc3)nc3ccc(-c4ccccc4)cn23)CC1 [Compound 181] | +++ (pIC50 ≧ 6.00)
12 | O=C(O)C1CCN(Cc2c(-c3ccc(Cl)cc3)nc3ccc(-c4ccccc4)cn23)CC1 [Compound 182] | +− (pIC50 < 4.00)
13 | O=C(c1ccc(Cl)cc1)N1CCN(Cc2c(-c3ccc(Cl)cc3)nc3ccc(-c4ccccc4)cn23)CC1 [Compound 183] | +++ (pIC50 ≧ 6.00)
14 | O=C(c1cncs1)N1CCN(Cc2c(-c3ccc(Cl)cc3)nc3ccc(-c4ccccc4)cn23)CC1 [Compound 184] | +++ (pIC50 ≧ 6.00)
15 | O=C(c1cccc(Cl)c1)N1CCN(Cc2c(-c3ccc(Cl)cc3)nc3ccc(-c4ccccc4)cn23)CC1 [Compound 185] | ++ (pIC50 5.00-5.99)
16 | CC(=O)N1CCN(Cc2c(-c3ccc(Cl)cc3)nc3cnc(-c4ccccc4)cn23)CC1 [Compound 186] | +++ (pIC50 ≧ 6.00)
17 | Clc1ccc(-c2nc3ccc(-c4ccccc4)cn3c2CNC2CCOCC2)cc1 [Compound 188] | ++ (pIC50 5.00-5.99)
18 | COc1cccc(-c2nc3ccc(-c4ccccc4F)cn3c2CN2CCN(C(=O)C3CCC3)CC2)c1 [Compound 189] | +++ (pIC50 ≧ 6.00)
19 | COc1cccc(-c2nc3ccc(-c4ccccc4Cl)cn3c2CN2CCN(C(=O)C3CCC3)CC2)c1 [Compound 190] | +++ (pIC50 ≧ 6.00)
20 | COc1cccc(-c2nc3ccc(-c4ccccc4C#N)cn3c2CN2CCN(C(=O)C3CCC3)CC2)c1 [Compound 191] | +++ (pIC50 ≧ 6.00)

Row | SMILES | GLUT1 pIC50
21 | COc1cccc(-c2nc3ccc(-c4ccccc4C(N)=O)cn3c2CN2CCN(C(=O)C3CCC3)CC2)c1 [Compound 192] | ++ (pIC50 5.00-5.99)
22 | N#Cc1cccc(C(=O)N2CCN(Cc3c(-c4ccc(Cl)cc4)nc4ccc(-c5ccccc5)cn34)CC2)c1 [Compound 193] | +++ (pIC50 ≧ 6.00)
23 | CC(=O)N1CCN(Cc2c(-c3ccc(Cl)cc3)nc3ccc(C4CC4)cn23)CC1 [Compound 194] | ++ (pIC50 5.00-5.99)
24 | CCC(=O)N1CCN(Cc2c(-c3ccc(Cl)cc3)nc3ccc(C4CC4)cn23)CC1 [Compound 195] | ++ (pIC50 5.00-5.99)
25 | O=C(c1ccncc1)N1CCN(Cc2c(-c3ccc(Cl)cc3)nc3ccc(C4CC4)cn23)CC1 [Compound 196] | +++ (pIC50 ≧ 6.00)
26 | NC1CCN(Cc2c(-c3ccc(Cl)cc3)nc3ccc(-c4ccccc4)cn23)CC1 [Compound 197] | + (pIC50 4.00-4.99)
27 | CN(C)C(=O)CNCc1c(-c2ccc(Cl)cc2)nc2ccc(-c3ccccc3)cn12 [Compound 198] | + (pIC50 4.00-4.99)
28 | FC(F)(F)c1nnc2n1CCN(Cc1c(-c3ccc(Cl)cc3)nc3ccc(-c4ccccc4)cn13)C2 [Compound 199] | ++ (pIC50 5.00-5.99)
29 | O=C(C1CCOCC1)N1CCN(Cc2c(-c3ccc(Cl)cc3)nc3ccc(-c4ccccc4)cn23)CC1 [Compound 200] | +++ (pIC50 ≧ 6.00)
30 | O=C(C1CCC1)N1CCN(Cc2c(-c3ccc(Cl)cc3)nc3ccc(-c4ccccc4Cl)cn23)CC1 [Compound 201] | +++ (pIC50 ≧ 6.00)
31 | O=C(C1CCC1)N1CCN(Cc2c(-c3ccc(Cl)cc3)nc3ccc(-c4ccccc4F)cn23)CC1 [Compound 202] | +++ (pIC50 ≧ 6.00)
32 | Clc1ccc(-c2nc3ccc(Cc4ccccc4)cn3c2CN2CCOCC2)cc1 [Compound 203] | ++ (pIC50 5.00-5.99)
33 | CC(=O)Nc1ccc2nc(-c3ccc(Cl)cc3)c(CN3CCOCC3)n2c1 [Compound 204] | +− (pIC50 < 4.00)
34 | COc1cccc(-c2nc3ccc(Br)cn3c2CN2CCN(C(=O)C3CCC3)CC2)c1 [Compound 205] | ++ (pIC50 5.00-5.99)
35 | Clc1ccc(-c2nc3ccc(-c4ccccc4)cn3c2CN2CCOCC2)cc1Cl [Compound 206] | ++ (pIC50 5.00-5.99)
36 | COc1cccc(-c2nc3ccc(C4CC4)cn3c2CN2CCN(C(=O)C3CCC3)CC2)c1 [Compound 207] | +++ (pIC50 ≧ 6.00)
37 | COc1cccc(-c2nc3ccccn3c2CN2CCN(C(=O)C3CCC3)CC2)c1 [Compound 208] | +− (pIC50 < 4.00)
38 | Cc1cn2c(CN3CCOCC3)c(-c3ccc(Cl)cc3)nc2cn1 [Compound 209] | +− (pIC50 < 4.00)
39 | CC(=O)NC1CCN(Cc2c(-c3ccc(Cl)cc3)nc3ccc(-c4ccccc4)cn23)CC1 [Compound 210] | ++ (pIC50 5.00-5.99)
40 | CCOC(=O)CN1CCN(Cc2c(-c3ccc(Cl)cc3)nc3ccc(-c4ccccc4)cn23)CC1 [Compound 211] | +− (pIC50 < 4.00)

Row | SMILES | GLUT1 pIC50
41 | O=C(c1ccnnc1)N1CCN(Cc2c(-c3ccc(Cl)cc3)nc3ccc(-c4ccccc4)cn23)CC1 [Compound 212] | +++ (pIC50 ≧ 6.00)
42 | N#Cc1ccccc1-c1ccc2nc(-c3ccc(Cl)cc3)c(CN3CCN(C(=O)C4CCC4)CC3)n2c1 [Compound 213] | +++ (pIC50 ≧ 6.00)
43 | CS(=O)(=O)Nc1ccc2nc(-c3ccc(Cl)cc3)c(CN3CCOCC3)n2c1 [Compound 215] | ++ (pIC50 5.00-5.99)
44 | C=C(C)c1cn2c(CN3CCOCC3)c(-c3ccc(Cl)cc3)nc2cn1 [Compound 216] | +++ (pIC50 ≧ 6.00)
45 | COCC(=O)N1CCN(Cc2c(-c3ccc(Cl)cc3)nc3ccc(-c4ccccc4C#N)cn23)CC1 [Compound 218] | +++ (pIC50 ≧ 6.00)
46 | CCC(=O)N1CCN(Cc2c(-c3ccc(Cl)cc3)nc3ccc(-c4ccccc4C#N)cn23)CC1 [Compound 219] | +++ (pIC50 ≧ 6.00)
47 | N#Cc1ccccc1-c1ccc2nc(-c3ccc(Cl)cc3)c(CN3CCN(C(=O)c4ccncc4)CC3)n2c1 [Compound 220] | +++ (pIC50 ≧ 6.00)
48 | N#Cc1ccccc1-c1ccc2nc(-c3ccc(Cl)cc3)c(CN3CCN(C(=O)c4cnccn4)CC3)n2c1 [Compound 221] | +++ (pIC50 ≧ 6.00)
49 | O=C(O)CN1CCN(Cc2c(-c3ccc(Cl)cc3)nc3ccc(-c4ccccc4)cn23)CC1 [Compound 223] | +− (pIC50 < 4.00)
50 | COCC(=O)N1CCN(Cc2c(-c3ccc(Cl)cc3)nc3ccc(-c4c(F)cccc4F)cn23)CC1 [Compound 225] | +++ (pIC50 ≧ 6.00)
51 | CC(=O)N1CCN(Cc2c(-c3ccc(Cl)cc3)nc3ccc(-c4c(F)cccc4F)cn23)CC1 [Compound 226] | +++ (pIC50 ≧ 6.00)
52 | CN(CC(=O)N(C)C)Cc1c(-c2ccc(Cl)cc2)nc2ccc(-c3ccccc3)cn12 [Compound 228] | +− (pIC50 < 4.00)
53 | O=C(c1cocn1)N1CCN(Cc2c(-c3ccc(Cl)cc3)nc3ccc(-c4ccccc4)cn23)CC1 [Compound 229] | +++ (pIC50 ≧ 6.00)
54 | O=C(c1ccc(=O)[nH]c1)N1CCN(Cc2c(-c3ccc(Cl)cc3)nc3ccc(-c4ccccc4)cn23)CC1 [Compound 230] | +++ (pIC50 ≧ 6.00)
55 | CC(=O)N1CCCN(Cc2c(-c3ccc(Cl)cc3)nc3ccc(-c4ccccc4)cn23)CC1 [Compound 231] | +++ (pIC50 ≧ 6.00)
56 | O=C(c1cnco1)N1CCN(Cc2c(-c3ccc(Cl)cc3)nc3ccc(-c4ccccc4)cn23)CC1 [Compound 233] | +++ (pIC50 ≧ 6.00)
57 | O=C(c1ccncc1)N1CCN(Cc2c(-c3ccc(Cl)cc3)nc3ccc(-c4c(F)cccc4F)cn23)CC1 [Compound 235] | +++ (pIC50 ≧ 6.00)
58 | Clc1ccc(-c2nc3ccc(C4CCOCC4)cn3c2CN2CCOCC2)cc1 [Compound 237] | ++ (pIC50 5.00-5.99)
